{"source": "patent US11679123B2", "about": "“N-acylated hyaluronic acid for hyperuricemia and gouty arthritis” (Queen's University at Kingston, priority 2018, dated 2023)", "key": {"[1]": {"test_system": "rats with MSU-induced acute gout", "experiment": "MSU crystal-induced acute gout in rats: ankle swelling ratio", "type": "in vivo, Wistar rats", "settings": "P<0.01; for ankle swelling in comparison with the MSU treated group: at 4 h, 12 h and 48 h", "protocol": "Male Wistar rats (n=50, 8 weeks: 160-200 g) were purchased from Liaoning Changsheng Biotechnology Company Ltd, Jilin, China (SCXK (Liao)-2015-0001). These rats were housed in plastic cages and maintained on a 12-h light/12-h dark cycle (lights on 7:00-19:00 h) under standard laboratory conditions of 55% relative humidity and at 23° C.±1° C. They were given standard chow (Liaoning Changsheng Biotechnology Company Ltd, Jilin, China) and tap water ad libitum. All experimental procedures were approved by the Animal Ethics Committee of Jilin University (Reference NO. 201605).\n(§1) An experimental model of MSU-induced gouty arthritis was used in order to evaluate the anti-inflammatory activities of BHA. Rats were randomly divided into five groups (n=10), include a control group (NC), a model group (MC), a 0.3 mg/kg colchicine group (COL), a 10 μg BHA group (10BHA) and a 50 μg BHA group (50BHA). MSU crystals were suspended in 0.9% sterile saline (30 mg/mL) prior to use. The colchicine group rats were orally administrated colchicine (0.3 mg/kg) for 8 days, and all rats except for the control group were injected with 3 mg of MSU (Sigma, USA) at the 6th day into the right ankle synovial space 1 h after gavage feeding. Meanwhile a turbid sample of MSU mixed with 100 μg of BHA or 500 μg of BHA per mL of solution for 10BHA rats or 50BHA rats. At the 8th day, 1 h after the administration of the final agents, blood was sampled from the caudal veins of the rats and the right ankle joints of the rats were collected and fixed in 4% paraformaldehyde. Serum was separated and stored at −80° C. prior to analysis (FIG. 2A, E).\nThe right ankle circumferences of all rats at 0, 4, 12, 24 and 48 h after MSU injection were measured. The swelling ratio (%) was used to evaluate the gouty arthritis and calculated according to the change of the circumference via the formula: Swelling ratio (%)=(Ct−C0)/C0, wherein, Ct represented the circumference at time t (in h) and C0 represented the circumference at 0 h."}, "inflammation factors": {"test_system": "inflammation factors", "experiment": "Serum inflammation factors by ELISA in rats with MSU-induced acute gout", "type": "in vivo, Wistar rats", "settings": "for 6-Keto-PGF1α / IFN-γ / IL-1α / IL-1β / IL-6 / IL-8 / IL-10 / IL-16 / IP-10 / MCP-1 / MIP-1α / NF-κB / PGE2 / TNF-α / TNF-β: serum, MSU-induced acute gout rats, mean ± S.D., n=10", "protocol": "as §1\nThe serum levels of interleukin-1α (IL-1α, 41734), IL-1β (43360), interleukin-6 (IL-6, 41731), interleukin-8 (IL-8, 41716), IL-10 (41736), interleukin-16 (IL-16, 41628), C—X—C motif chemokine 10 (CXCL10, 41570), monocyte chemoattractant protein 1 (MCP-1, 41640), macrophage inflammatory protein 1α (MIP-1α, 41645), interferon gamma (IFN-γ, 41739), TNF-α (41721), tumor necrosis factor-β (TNF-β, 41673), nuclear factor κ-light-chain-enhancer of activated B cells (NF-κB, 43358), 6-keto-prostaglandin F-1α (6-Keto-PGF1α, 41809) and prostaglandin E2 (PGE2, 41609) in rats were determined by the ELISA method using related Elisa Kits (Yuanye Bio-Technology Co. Ltd, Shanghai, China) according to the manufacturer's instructions."}, "[2]": {"test_system": "stimulated human cultured macrophages", "settings": "THP-1, BHA of reduced molecular weight; cited from earlier work"}, "[3]": {"test_system": "creatinine (Cr) and blood urea nitrogen (BUN)", "experiment": "Cr and urea nitrogen in serum and liver of hyperuricemic mice (renal function)", "type": "in vivo, Balb/C mice", "settings": "for lowering of Cr in the serum / lowering of urea nitrogen in the liver: BHA, P<0.05", "protocol": "Due to the presence of uricase in mice, a hyperuricemic mouse model was established by using uricase inhibitor and large amounts of purine. Mice were randomly divided into five groups (n=10), including the control group (NC), model group (MC), 20 mg/kg of AL (Shimao Tianjie Pharmaceutical Co. Ltd, Jiangsu, China) group, 10 μg BHA group (10BHA) and 50 μg BHA group (50BHA). Oral administration of AL and intraperitoneal injection of BHA were administered according to the required dose, and all mice were gavage fed 20 g/kg yeast extract powder 12 h prior to the administration of AL and BHA except for NC mice for 8 days. From the 6th to 8th day, 1-h prior to AL and BHA administration, 300 mg/kg of OXO (Sigma, USA) was intraperitoneally injected to all of the mice except those in the control group. At 1 h after the final drug administration, blood was sampled from caudal veins of the mice, serum was separated and their livers were quickly collected (FIG. 3A, E). All samples were stored at −80° C. until assay measurements were performed.\nThe levels of reactive oxygen species (ROS, 43355), malondialdehyde (MDA, 43124) glutathione peroxidase (GSH-Px, 43390), superoxide dismutase (SOD, 43125), catalase (CAT, 43356), creatinine (Cr, 43353) and blood urea nitrogen (BUN, 43352) in the serum and livers of mice were determined using ELISA Kits (Yuanye Bio-Technology Co. Ltd, Shanghai, China) according to the manufacturer's instructions."}, "[4]": {"settings": "10 μg BHA intra-articular with MSU (10BHA)"}, "[5]": {"settings": "50 μg BHA intra-articular with MSU (50BHA)"}}, "data": [{"substance": "N-butyrylated HA [BHA]", "values": [{"measurement": "swelling ratio reduction", "setting": "[1]; 10 μg BHA, at 12 h (best suppression)", "value": 11.0, "unit": "%"}, {"measurement": "swelling ratio reduction", "setting": "[1]; 50 μg BHA, at 48 h (best suppression)", "value": 9.5, "unit": "%"}, {"measurement": "ankle swelling in comparison with the MSU treated group", "setting": "[1]; BHA 10 μg", "value": "suppressed the ankle swelling"}, {"measurement": "ankle swelling in comparison with the MSU treated group", "setting": "[1]; BHA 50 μg", "value": "suppressed the ankle swelling"}, {"measurement": "decrease of serum IL-8 compared to rats injected with MSU", "setting": "inflammation factors; 10 μg BHA, P<0.05", "value": 7.13, "unit": "%"}, {"measurement": "decrease of serum MCP-1 compared to rats injected with MSU", "setting": "inflammation factors; 10 μg BHA, P<0.05", "value": 7.76, "unit": "%"}, {"measurement": "increase of serum IL-10 compared to rats injected with MSU", "setting": "inflammation factors; 10 μg BHA, P<0.05", "value": 9.49, "unit": "%"}, {"measurement": "decrease of serum IFN-γ compared to rats injected with MSU", "setting": "inflammation factors; 50 μg BHA, P<0.05", "value": 33.18, "unit": "%"}, {"measurement": "decrease of serum IL-1β compared to rats injected with MSU", "setting": "inflammation factors; 50 μg BHA, P<0.05", "value": 5.56, "unit": "%"}, {"measurement": "decrease of serum IL-8 compared to rats injected with MSU", "setting": "inflammation factors; 50 μg BHA, P<0.05", "value": 6.55, "unit": "%"}, {"measurement": "decrease of serum MCP-1 compared to rats injected with MSU", "setting": "inflammation factors; 50 μg BHA, P<0.05", "value": 15.58, "unit": "%"}, {"measurement": "6-Keto-PGF1α", "setting": "inflammation factors; [4]", "value": "257 ± 20.8"}, {"measurement": "IFN-γ", "setting": "inflammation factors; [4]", "value": "107.4 ± 7.6", "unit": "pg/mL"}, {"measurement": "IL-1α", "setting": "inflammation factors; [4]", "value": "71.5 ± 11.2", "unit": "pg/mL"}, {"measurement": "IL-1β", "setting": "inflammation factors; [4]", "value": "19.6 ± 1.6", "unit": "pg/mL"}, {"measurement": "IL-6", "setting": "inflammation factors; [4]", "value": "78.5 ± 5.6", "unit": "pg/mL"}, {"measurement": "IL-8", "setting": "inflammation factors; [4]", "value": "213.8 ± 11.4", "unit": "pg/mL"}, {"measurement": "IL-10", "setting": "inflammation factors; [4]", "value": "12 ± 0.9", "unit": "pg/mL"}, {"measurement": "IL-16", "setting": "inflammation factors; [4]", "value": "399.3 ± 14.8", "unit": "pg/mL"}, {"measurement": "IP-10", "setting": "inflammation factors; [4]", "value": "154.3 ± 18^ pg/mL"}, {"measurement": "MCP-1", "setting": "inflammation factors; [4]", "value": "321.2 ± 20.5", "unit": "pg/mL"}, {"measurement": "MIP-1α", "setting": "inflammation factors; [4]", "value": "282.8 ± 23.6", "unit": "pg/mL"}, {"measurement": "NF-κB", "setting": "inflammation factors; [4]", "value": "589.8 ± 104.", "unit": "pg/mL"}, {"measurement": "PGE2", "setting": "inflammation factors; [4]", "value": "209.7 ± 17.3", "unit": "pg/mL"}, {"measurement": "TNF-α", "setting": "inflammation factors; [4]", "value": "155.9 ± 11.4", "unit": "pg/mL"}, {"measurement": "TNF-β", "setting": "inflammation factors; [4]", "value": "139.1 ± 25.7", "unit": "pg/mL"}, {"measurement": "6-Keto-PGF1α", "setting": "inflammation factors; [5]", "value": "262 ± 10.8"}, {"measurement": "IFN-γ", "setting": "inflammation factors; [5]", "value": "75.4 ± 31.7", "unit": "pg/mL"}, {"measurement": "IL-1α", "setting": "inflammation factors; [5]", "value": "77.4 ± 13", "unit": "pg/mL"}, {"measurement": "IL-1β", "setting": "inflammation factors; [5]", "value": "18.8 ± 0.8", "unit": "pg/mL"}, {"measurement": "IL-6", "setting": "inflammation factors; [5]", "value": "75 ± 5.3", "unit": "pg/mL"}, {"measurement": "IL-8", "setting": "inflammation factors; [5]", "value": "216.6 ± 11.6", "unit": "pg/mL"}, {"measurement": "IL-10", "setting": "inflammation factors; [5]", "value": "11.6 ± 1.1", "unit": "pg/mL"}, {"measurement": "IL-16", "setting": "inflammation factors; [5]", "value": "401.2 ± 25.1", "unit": "pg/mL"}, {"measurement": "IP-10", "setting": "inflammation factors; [5]", "value": "150.5 ± 7.5", "unit": "pg/mL"}, {"measurement": "MCP-1", "setting": "inflammation factors; [5]", "value": "292 ± 27.8", "unit": "pg/mL"}, {"measurement": "MIP-1α", "setting": "inflammation factors; [5]", "value": "283.9 ± 12.7", "unit": "pg/mL"}, {"measurement": "NF-κB", "setting": "inflammation factors; [5]", "value": "513 ± 74.1", "unit": "pg/mL"}, {"measurement": "PGE2", "setting": "inflammation factors; [5]", "value": "193.2 ± 12.7", "unit": "pg/mL"}, {"measurement": "TNF-α", "setting": "inflammation factors; [5]", "value": "152.7 ± 12.1", "unit": "pg/mL"}, {"measurement": "TNF-β", "setting": "inflammation factors; [5]", "value": "129 ± 21.9", "unit": "pg/mL"}, {"measurement": "production of pro-inflammatory cytokines (IL-1, IL-6, IL-8, TNF-α)", "setting": "[2]", "value": "decreased production of pro-inflammatory cytokines significantly"}, {"measurement": "lowering of Cr in the liver", "setting": "[3]; 10 μg BHA, P<0.01", "value": 8.14, "unit": "%"}, {"measurement": "lowering of Cr in the serum", "setting": "[3]; second value listed (10 μg)", "value": 8.21, "unit": "%"}, {"measurement": "lowering of urea nitrogen in the liver", "setting": "[3]; second value listed (10 μg)", "value": 11.65, "unit": "%"}, {"measurement": "lowering of Cr in the serum", "setting": "[3]; third value listed (50 μg)", "value": 12.02, "unit": "%"}, {"measurement": "lowering of urea nitrogen in the liver", "setting": "[3]; third value listed (50 μg)", "value": 12.81, "unit": "%"}]}]}
